Values after ≈ are worked out from the molar mass of the structure shown. Where two headings read alike, the source gives them in different places.
How the values were obtained:
[1] = tested on: Bifidobacterium bifidum; test: In vitro MIC testing against anaerobic bacteria; format: cell-based; details: ATCC15696; Bifidobacterium bifidum 3965, ATCC 15696
[2] = tested on: Bifidobacterium brevi; test: In vitro MIC testing against anaerobic bacteria; format: cell-based; details: ATCC15698; Bifidobacterium brevi 3967, ATCC 15698
[3] = tested on: Bifidobacterium infantis; test: In vitro MIC testing against anaerobic bacteria; format: cell-based; details: ATCC15702; Bifidobacterium infantis 3966, ATCC 15702
[4] = tested on: Bifidobacterium longum; test: In vitro MIC testing against anaerobic bacteria; format: cell-based; details: ATCC15707; Bifidobacterium longum 3968, ATCC 15707
[5] = tested on: Clostridium perfringens; test: microbe, parasite or virus in culture; format: cell-based
[6] = tested on: Clostridium difficile; test: In vitro MIC testing against anaerobic bacteria; format: cell-based
[7] = tested on: Lactobacillus plantarum; test: In vitro MIC testing against anaerobic bacteria; format: cell-based; details: Lactiplantibacillus plantarum, ATCC39268; Lactobacillus plantarum 2791, ATCC 39268
[8] = tested on: Peptostreptococcus anaerobius; test: In vitro MIC testing against anaerobic bacteria; format: cell-based
[9] = tested on: Propionibacterium acnes; test: In vitro MIC testing against anaerobic bacteria; format: cell-based; details: Cutibacterium acnes, read-out: MIC
[10] = tested on: Streptococcus intermedius; test: In vitro MIC testing against anaerobic bacteria; format: cell-based; details: ATCC27335; Streptococcus intermedius 1203, ATCC 27335
[11] = tested on: Bacteroides ovatus; test: In vitro MIC testing against anaerobic bacteria; format: cell-based
[12] = tested on: Bacteroides thetaiotaomicron; test: In vitro MIC testing against anaerobic bacteria; format: cell-based
[13] = tested on: Bacteroides vulgatus; test: In vitro MIC testing against anaerobic bacteria; format: cell-based
[14] = tested on: Eikenella corrodens; test: In vitro MIC testing against anaerobic bacteria; format: cell-based; details: ATCC43278; Eikenella corrodens 1206, ATCC 43278; read-out: MIC
[15] = tested on: Fusobacterium necrophorum; test: In vitro MIC testing against anaerobic bacteria; format: cell-based; details: ATCC25286; Fusobacterium necrophorum 3963, ATCC 25286; read-out: MIC
[16] = tested on: Fusobacterium nucleatum; test: In vitro MIC testing against anaerobic bacteria; format: cell-based; details: ATCC25586; Fusobacterium nucleatum 3962, ATCC 25586; read-out: MIC
[17] = tested on: Porphyromonas asaccharolytica; test: In vitro MIC testing against anaerobic bacteria; format: cell-based
[18] = tested on: Prevotella melaninogenica; test: In vitro MIC testing against anaerobic bacteria; format: cell-based
[19] = tested on: Prevotella spp.; test: In vitro MIC testing against anaerobic bacteria; format: cell-based
[20] = tested on: Veillonella parvula; test: In vitro MIC testing against anaerobic bacteria; format: cell-based; details: ATCC17745; Veillonella parvula 1272, ATCC 17745
[21] = tested on: P. granulosum; test: In vitro MIC testing, antibacterial spectrum of activity; format: cell-based; details: P. granulosum [clinical isolates] (3 isolates)
[22] = tested on: P. avidum; test: as above; format: cell-based; details: P. avidum [clinical isolates] (4 isolates)
[23] = tested on: S. epidermidis; test: as above; format: cell-based, Staphylococcus epidermidis; details: for MIC50 / MIC90: Staphylococcus epidermidis; for MIC50: read-out: MIC50; for MIC90: read-out: MIC90
[24] = tested on: S. pneumoniae; test: as above; format: cell-based, Streptococcus pneumoniae
[25] = tested on: S. pyogenes; test: as above; format: cell-based
[26] = tested on: S. agalactiae; test: as above; format: cell-based
[27] = tested on: Streptococcus spp. [Group C]; test: as above; format: cell-based; details: Streptococcus spp. [Group C] (30 isolates)
[28] = tested on: E. faecium; test: as above; format: cell-based; details: for MIC / MIC50 / MIC90: Enterococcus faecium; for MIC50: read-out: MIC50; for MIC90: read-out: MIC90
[29] = tested on: E. coli; test: as above; format: cell-based; details: E. coli [tetS] (7 isolates)
[30] = tested on: K. pneumoniae; test: as above; format: cell-based
[31] = tested on: P. mirabilis; test: as above; format: cell-based; details: Proteus mirabilis; P. mirabilis (30 isolates)
[32] = tested on: P. aeruginosa; test: as above; format: cell-based; details: Pseudomonas aeruginosa; P. aeruginosa (11 isolates)
[33] = S. epidermidis [MRSE] (32 isolates)
[34] = S. epidermidis [MSSE] (31 isolates)
[35] = Klebsiella pneumoniae, K. pneumoniae (31 isolates)

C[C@H]1c2cccc(O)c2C(=O)C2=C(O)[C@]3(O)C(=O)C(C(N)=O)=C(O)[C@@H](N(C)C)[C@@H]3[C@@H](O)[C@@H]21 [Doxycycline, doxycycline]
MIC [1]: 0.5 µg/mL (≈ 1.13 µM) | MIC [2]: 0.5 µg/mL (≈ 1.13 µM) | MIC [3]: 0.5 µg/mL (≈ 1.13 µM) | MIC [4]: 1 µg/mL (≈ 2.25 µM) | MIC [5]: 16 µg/mL (≈ 36 µM) | MIC ([6]; Clostridioides difficile): 0.06 µg/mL (≈ 0.135 µM) | MIC ([6]; Clostridium difficile 3584): 0.06 µg/mL (≈ 0.135 µM) | MIC [7]: 2 µg/mL (≈ 4.5 µM) | MIC ([8]; Peptostreptococcus anaerobius 3526): 2 µg/mL (≈ 4.5 µM) | MIC ([8]; Peptostreptococcus anaerobius 3531): 4 µg/mL (≈ 9 µM) | MIC ([9]; ATCC11829, Propionibacterium acnes 1286, ATCC 11829): 0.5 µg/mL (≈ 1.13 µM) | MIC ([9]; Propionibacterium acnes 1713): 0.12 µg/mL (≈ 0.27 µM) | MIC [10]: 0.5 µg/mL (≈ 1.13 µM) | MIC ([11]; Bacteroides ovatus 3503, read-out: MIC): 8 µg/mL (≈ 18 µM) | MIC ([11]; Bacteroides ovatus 3508, read-out: MIC): 0.12 µg/mL (≈ 0.27 µM) | MIC ([12]; Bacteroides thetaiotaomicron 3399): 0.25 µg/mL (≈ 0.563 µM) | MIC ([12]; Bacteroides thetaiotaomicron 3496): 16 µg/mL (≈ 36 µM) | MIC ([13]; Bacteroides vulgatus 3494): 8 µg/mL (≈ 18 µM) | MIC ([13]; Phocaeicola vulgatus, Bacteroides vulgatus 3389, read-out: MIC): 8 µg/mL (≈ 18 µM) | MIC [14]: 0.12 µg/mL (≈ 0.27 µM) | MIC [15]: 0.5 µg/mL (≈ 1.13 µM) | MIC [16]: 0.5 µg/mL (≈ 1.13 µM) | MIC ([17]; Porphyromonas asaccharolytica 3552, read-out: MIC): 4 µg/mL (≈ 9 µM) | MIC ([17]; Porphyromonas asaccharolytica 3557, read-out: MIC): 2 µg/mL (≈ 4.5 µM) | MIC [18]: 16 µg/mL (≈ 36 µM) | MIC ([18]; Prevotella melaninogenica 3443, read-out: MIC): 1 µg/mL (≈ 2.25 µM) | MIC ([19]; Prevotella spp. 3564): 1 µg/mL (≈ 2.25 µM) | MIC ([19]; Prevotella spp. 3568): 1 µg/mL (≈ 2.25 µM) | MIC [20]: 1 µg/mL (≈ 2.25 µM) | MIC Range [21]: 0.5 to 1 µg/mL | MIC Range [22]: 0.5 to 4 µg/mL | MIC Range [23, 33]: 0.12 to 8 µg/mL | MIC Range [23, 34]: 0.06 to 1 µg/mL | MIC50 [23, 33]: 0.5 µg/mL (≈ 1.13 µM) | MIC90 [23, 33]: 1 µg/mL (≈ 2.25 µM) | MIC50 [23, 34]: 0.12 µg/mL (≈ 0.27 µM) | MIC90 [23, 34]: 1 µg/mL (≈ 2.25 µM) | MIC Range ([24]; S. pneumoniae [tetR] (5 isolates)): 4-4 μg/mL | MIC Range ([24]; S. pneumoniae [tetS] (5 isolates)): ≦0.06-0.125 μg/mL | MIC50 ([24]; Streptococcus pneumoniae, S. pneumoniae [PSSP] (32 isolates), read-out: MIC50): 0.06 µg/mL (≈ 0.135 µM) | MIC90 ([24]; Streptococcus pneumoniae, S. pneumoniae [PSSP] (32 isolates), read-out: MIC90): 0.12 µg/mL (≈ 0.27 µM) | MIC ([24]; Streptococcus pneumoniae, S. pneumoniae strain PBS # 511, tetM): 4 µg/mL (≈ 9 µM) | MIC Range ([25]; S. pyogenes (32 isolates)): 0.06 to 8 µg/mL | MIC Range ([25]; S. pyogenes [tetR] (5 isolates)): 4 to 8 µg/mL | MIC Range ([25]; S. pyogenes [tetS] (5 isolates)): ≦0.06-0.125 μg/mL | MIC ([25]; Streptococcus pyogenes, S. pyogenes strain PBS # 330, tetO): 8 µg/mL (≈ 18 µM) | MIC ([25]; Streptococcus pyogenes, S. pyogenes strain PBS # 792, tetM): 4 µg/mL (≈ 9 µM) | MIC50 ([25]; Streptococcus pyogenes, S. pyogenes (32 isolates), read-out: MIC50): 0.12 µg/mL (≈ 0.27 µM) | MIC90 ([25]; Streptococcus pyogenes, S. pyogenes (32 isolates), read-out: MIC90): 4 µg/mL (≈ 9 µM) | MIC Range ([26]; S. agalactiae (31 isolates)): 0.06 to 16 µg/mL | MIC Range ([26]; S. agalactiae [tetR] (7 isolates)): 8 to 16 µg/mL | MIC Range ([26]; S. agalactiae [tetS] (3 isolates)): 0.25-0.25 μg/mL | MIC ([26]; Streptococcus agalactiae, S. agalactiae strain PBS # 316, tetO): 8 µg/mL (≈ 18 µM) | MIC ([26]; Streptococcus agalactiae, S. agalactiae strain PBS # 897, tetM): 8 µg/mL (≈ 18 µM) | MIC50 ([26]; Streptococcus agalactiae, S. agalactiae (31 isolates), read-out: MIC50): 8 µg/mL (≈ 18 µM) | MIC90 ([26]; Streptococcus agalactiae, S. agalactiae (31 isolates), read-out: MIC90): 16 µg/mL (≈ 36 µM) | MIC Range [27]: 0.06 to 16 µg/mL | MIC50 ([27]; read-out: MIC50): 0.12 µg/mL (≈ 0.27 µM) | MIC90 ([27]; read-out: MIC90): 8 µg/mL (≈ 18 µM) | MIC Range ([28]; E. faecium [VRE] (30 isolates)): 0.06 to 16 µg/mL | MIC Range ([28]; E. faecium [VSE] (32 isolates)): 0.06 to 32 µg/mL | MIC Range ([28]; E. faecium [tetR] (6 isolates)): 4 to 16 µg/mL | MIC ([28]; E. faecium strain PBS # 965, tetM): 4 µg/mL (≈ 9 µM) | MIC ([28]; E. faecium strain PBS # 1323, tetK): 4 µg/mL (≈ 9 µM) | MIC ([28]; E. faecium strain PBS # 1324, tetO): 4 µg/mL (≈ 9 µM) | MIC50 ([28]; E. faecium [VRE] (30 isolates)): 1 µg/mL (≈ 2.25 µM) | MIC90 ([28]; E. faecium [VRE] (30 isolates)): 8 µg/mL (≈ 18 µM) | MIC50 ([28]; E. faecium [VSE] (32 isolates)): 0.5 µg/mL (≈ 1.13 µM) | MIC90 ([28]; E. faecium [VSE] (32 isolates)): 16 µg/mL (≈ 36 µM) | MIC Range [29]: 0.5 to 4 µg/mL | MIC Range ([30]; K. pneumoniae [tetS] (7 isolates)): 0.5 to 8 µg/mL | MIC50 [30, 35]: 8 µg/mL (≈ 18 µM) | MIC90 [30, 35]: > 32 µg/mL | MIC50 [31]: > 32 µg/mL | MIC90 [31]: > 32 µg/mL | MIC50 [32]: > 32 µg/mL | MIC90 [32]: > 32 µg/mL
